In patent US7807721B2, “Compositions for inhibiting the scent tracking ability of mosquitoes in environmentally defined three dimensional spaces” (Biosensory Inc., priority 1999, dated 2010):

Tests used:
Type in all cases: in vivo
[1] = test system: adult female Aedes aegypti mosquitoes; experiment: Dual-port olfactometer tests of Example 2: test compound + CS vs CS, and Deet vs inhibitor
Source text: (§1) A triple cage, dual-port olfactometer, illustrated and described in detail by Posey et al. J. Med. Entomol. 35(3), 330-334 (1998), was used to study the responses of 6 to 8 day old, laboratory-reared adult female Aedes aegypti mosquitoes. This system allows mosquitoes to choose between two different stimuli. The olfactometer is constructed of clear acrylic, comprises three test chambers in a tiered configuration, has paired removable sleeves, and mosquito traps on each chamber, and is equipped with a filtered external air supply system that allows precise temperature (+/−0.5° C.) and relative humidity (+/−2%) control. Only one chamber at a time was used for the tests. Outside air was conditioned prior to entry through the choice ports, the mosquito trap, and the olfactometer by passing through a series of charcoal filters and then heated and humidified, if necessary. One hour before initiation of tests, about 75 female Ae. aegypti mosquitoes were aspirated into the olfactometer chamber and allowed to acclimatize for that one hour before testing. Test compounds were placed into test ports upwind of the traps and olfactometer chamber. A completely randomized design was used for cage position. Competitive tests were conducted. In these competitive tests, the inhibiting compound was placed into one of the ports (treatment port); the second port (check port) had the same apparatus but no chemical inhibiting compound. In these tests, inhibiting compounds were presented in glass Pyrex petri dishes (60×15 mm) that had been cleaned and sterilized in a vacuum oven and then handled only with gloves to minimize any chance of contamination and placed into one port (Treatment Port) along with another petri dish containing 500 μL of Clara Sludge (CS), a synthetic human attractant. The other port (Check Port) contained an untreated petri with no inhibiting compound and a second petri dish containing 500 μL CS. Various concentrations (25, 100, 250, 500 and 1000 μL) of the compounds were used in these tests. Each test was conducted for a period of 3 minutes; the number of mosquitoes trapped in the baited ports, and those remaining in the cage, were counted. The data are then presented as a percentage of total mosquitoes in the cage that were attracted to each port and the percentage of mosquitoes remaining in the cage (i.e., not attracted to either port). Tests identical to that described in Example 1 were conducted with test compounds when employed together with the synthetic human attractant (CS) in a port. The test combinations were: • (1) CS vs. CS (comparison) • (2) dehydrolinalool+CS vs. CS • (3) linalool+CS vs. CS Also for comparison purposes, a known topical mosquito repellent, Deet, namely N,N-diethyl-3-methylbenzamide, was employed to compare to linalool and to dehydrolinalool. Each test compound was tested at 100, 250 and 500 μL. The results are again presented as percent mosquitoes attracted to Ports 1 or 2 or not attracted to either port.

[2] = test system: adult female Aedes aegypti mosquitoes; experiment: Competitive tests in triple cage, dual-port olfactometer: inhibitor + Clara Sludge (CS) human attractant port vs CS-only port; details: for % Mosquitoes Entering Treatment Port (Inhibitor Port): 3 min test; for % Mosquitoes Entering Control Port (Human Scent Port): control port 500 μL CS only; for % Mosquitoes Entering Control Port (Human Scent Port) / % Mosquitoes Remaining in Cage: 3 min; for inhibition of the ability of mosquitoes to locate the human scent (CS): all tested concentration levels (25-1000 μL)
Source text: as §1, with “port).” for “port). Tests identical to that described in Example 1 were conducted with test compounds when employed together with the synthetic human attractant (CS) in a port. The test combinations were: • (1) CS vs. CS (comparison) • (2) dehydrolinalool+CS vs. CS • (3) linalool+CS vs. CS Also for comparison purposes, a known topical mosquito repellent, Deet, namely N,N-diethyl-3-methylbenzamide, was employed to compare to linalool and to dehydrolinalool. Each test compound was tested at 100, 250 and 500 μL. The results are again presented as percent mosquitoes attracted to Ports 1 or 2 or not attracted to either port.”

Culex nigripalpus = experiment: Field test, mosquito landing counts on human subject in open area surrounded by linalool dispensers
Method: In a further test of the inhibiting ability of the compounds of this invention, the following field test was conducted using linalool as the inhibiting compound. The study was conducted on a site adjacent to a wooded wetland breeding area in Sarasota, Fla. A trap baited with 200 ml/min CO2, equivalent to the respiration of a 91 kg (200 lb) man, ran continuously each night as an experimental control. The trap collections were first used to count the mosquito population and were then examine to identify the species present. The mosquito population was about 91% Culex nigripalpus, the St. Louis encephalitis vector in Florida.
The experimental design was a 2×2 Latin Square. Tests were conducted in two open areas 24 meters (80 feet) apart labeled Locations 1 and 2. Each area was 2.4 meters×2.4 meters (8 ft×8 ft), i.e., 5.76 m^2 (64 ft^2). Wooden poles 1.38 meters (4.5 feet) high and having inhibiting compound dispensers thereon were driven into the ground at the corners of the square area. On alternate nights, one area was unprotected by inhibiting compound while the other area had inhibiting compound dispensed from the dispenser. In operation, the dispenser emitted linalool inhibitor having 95% active ingredient at a rate of 20 mg/hr to 40 mg/hr.
Landing counts were taken from the arms, legs and torso of a test subject known to be moderately attractive to mosquitoes who was seated in the center of the square area. At 15-minute intervals over a period of 2 to 3 hours during peak mosquito activity, the subject changed position, alternating between Locations 1 and 2. […] Mosquitoes were killed to prevent double counting.
On some cue, they emerge en masse from the wooded wetland and fan out in a radial direction foraging for blood hosts. The period of peak activity is evidenced by a sharp increase in landing counts followed by a sharp decrease as the wave of outbound mosquitoes passes the test location. This behavior introduces two variables that must be taken into account. The first affects the experimental design and the second affects the interpretation of the results. […]

[3] = 100 micro liter, Port 1 Deet vs Port 2 linalool
[4] = 100 micro liter, Port 1 test compound vs Port 2 human scent
[5] = 250 micro liter, Port 1 Deet vs Port 2 linalool
[6] = 250 micro liter, Port 1 test compound vs Port 2 human scent
[7] = 500 micro liter, Port 1 Deet vs Port 2 linalool
[8] = 500 micro liter, Port 1 test compound vs Port 2 human scent
[9] = 25 micro liter test compound + 500 μL CS in treatment port
[10] = 25 micro liter test compound in treatment port
[11] = 100 micro liter test compound + 500 μL CS in treatment port
[12] = 100 micro liter test compound in treatment port
[13] = 250 micro liter test compound + 500 μL CS in treatment port
[14] = 250 micro liter test compound in treatment port
[15] = 500 micro liter test compound + 500 μL CS in treatment port
[16] = 500 micro liter test compound in treatment port
[17] = 1000 micro liter test compound + 500 μL CS in treatment port
[18] = 1000 micro liter test compound in treatment port
[19] = 100 micro liter, Port 1 Deet vs Port 2 dehydrolinalool
[20] = 250 micro liter, Port 1 Deet vs Port 2 dehydrolinalool
[21] = 500 micro liter, Port 1 Deet vs Port 2 dehydrolinalool

SMILES | % Mosquitoes Remaining in Cage [1, 3] | % Mosquitoes Entering Port 1 (test compound + CS) [1, 4] | % Mosquitoes Entering Port 2 (human scent) [1, 4] | % Mosquitoes Remaining in Cage [1, 4] | % Mosquitoes Remaining in Cage [1, 5] | % Mosquitoes Entering Port 1 (test compound + CS) [1, 6] | % Mosquitoes Entering Port 2 (human scent) [1, 6] | % Mosquitoes Remaining in Cage [1, 6] | % Mosquitoes Remaining in Cage [1, 7] | % Mosquitoes Entering Port 1 (test compound + CS) [1, 8] | % Mosquitoes Entering Port 2 (human scent) [1, 8] | % Mosquitoes Remaining in Cage [1, 8] | % Mosquitoes Entering Treatment Port (Inhibitor Port) [2, 9] | % Mosquitoes Entering Control Port (Human Scent Port) [2, 10] | % Mosquitoes Remaining in Cage ([2]; 25 micro liter test compound) | % Mosquitoes Entering Treatment Port (Inhibitor Port) [2, 11] | % Mosquitoes Entering Control Port (Human Scent Port) [2, 12] | % Mosquitoes Remaining in Cage ([2]; 100 micro liter test compound) | % Mosquitoes Entering Treatment Port (Inhibitor Port) [2, 13] | % Mosquitoes Entering Control Port (Human Scent Port) [2, 14] | other results
C=CC(C)(O)CCC=C(C)C (centres unmarked) [Linalool, linalool] | 26.2% | 22.5% | 50.7% | 26.8% | 26.2% | 14.9% | 56.8% | 28.4% | 27.3% | 25.7% | 55.6% | 18.7% | 21.98% | 56.89% | 21.14% | 31.3% | 45.61% | 23.08% | 16.57% | 47.3% | % Mosquitoes Entering Port 2 (linalool) [1, 3]: 17.5%; % Mosquitoes Entering Port 2 (linalool) [1, 5]: 25.7%; % Mosquitoes Entering Port 2 (linalool) [1, 7]: 23.1%; % Mosquitoes Remaining in Cage ([2]; 250 micro liter test compound): 36.13%; % Mosquitoes Entering Treatment Port (Inhibitor Port) [2, 15]: 16.13%; % Mosquitoes Entering Control Port (Human Scent Port) [2, 16]: 44.56%; % Mosquitoes Remaining in Cage ([2]; 500 micro liter test compound): 39.31%; % Mosquitoes Entering Treatment Port (Inhibitor Port) [2, 17]: 27.24%; % Mosquitoes Entering Control Port (Human Scent Port) [2, 18]: 44.14%; % Mosquitoes Remaining in Cage ([2]; 1000 micro liter test compound): 31.3%; inhibition of the ability of mosquitoes to locate the human scent (CS) [2]: greatly inhibit; reduction of mosquito landing counts, average (Culex nigripalpus; average over the three trials, linalool dispensed at 20 mg/hr to 40 mg/hr, human subject, 64 ft^2 area): 53%; reduction of landings (Culex nigripalpus; morning trial (7:00 AM to 9:00 AM) when mosquito activity was light): 73%; landings on human subject (Culex nigripalpus; subject surrounded by linalool dispensed from the dispensers (unprotected: 286 landings)): 135 landings
C#CC(C)(O)CCC=C(C)C (centres unmarked) [Dehydrolinalool, dehydrolinalool] | – | 18.1% | 63% | 18.9% | – | 20.1% | 59.2% | 20.6% | – | 20.6% | 55.5% | 23.9% | 30.23% | 50.77% | 19% | 31.13% | 53.87% | 15% | 22.6% | 44.6% | % Mosquitoes Entering Port 2 (dehydrolinalool) [1, 19]: 20.1%; % Mosquitoes Remaining in Cage [1, 19]: 19.8%; % Mosquitoes Entering Port 2 (dehydrolinalool) [1, 20]: 22.5%; % Mosquitoes Remaining in Cage [1, 20]: 29.2%; % Mosquitoes Entering Port 2 (dehydrolinalool) [1, 21]: 30.3%; % Mosquitoes Remaining in Cage [1, 21]: 27.6%; % Mosquitoes Remaining in Cage ([2]; 250 micro liter test compound): 32.8%; % Mosquitoes Entering Treatment Port (Inhibitor Port) [2, 15]: 24.8%; % Mosquitoes Entering Control Port (Human Scent Port) [2, 16]: 56.47%; % Mosquitoes Remaining in Cage ([2]; 500 micro liter test compound): 24.18%; % Mosquitoes Entering Treatment Port (Inhibitor Port) [2, 17]: 26.11%; % Mosquitoes Entering Control Port (Human Scent Port) [2, 18]: 42.76%; % Mosquitoes Remaining in Cage ([2]; 1000 micro liter test compound): 27.12%; inhibition of the ability of mosquitoes to locate the human scent (CS) [2]: greatly inhibit
CCN(CC)C(=O)c1cccc(C)c1 [Deet, N,N-diethyl-3-methylbenzamide, reference compound] | 26.2% | – | – | – | 26.2% | – | – | – | 27.3% | – | – | – | – | – | – | – | – | – | – | – | % Mosquitoes Entering Port 1 (Deet) [1, 19]: 60.1%; % Mosquitoes Remaining in Cage [1, 19]: 19.8%; % Mosquitoes Entering Port 1 (Deet) [1, 3]: 56.3%; % Mosquitoes Entering Port 1 (Deet) [1, 20]: 48.8%; % Mosquitoes Remaining in Cage [1, 20]: 29.2%; % Mosquitoes Entering Port 1 (Deet) [1, 5]: 48.1%; % Mosquitoes Entering Port 1 (Deet) [1, 21]: 42.1%; % Mosquitoes Remaining in Cage [1, 21]: 27.6%; % Mosquitoes Entering Port 1 (Deet) [1, 7]: 49.5%
